Test results reported in US11084800B2 (Achillion Pharmaceuticals, Inc., priority 2017, dated 2021).

biological target: Human Factor D (Homo sapiens (Human), UniProt P00746); experiment: Human Factor D Assay; assay type: biochemical; conditions: Factor D inhibition, assay of Example 10; read-out: IC5 (Stars)
In short: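 Thioester substrate Z-L-Lys-SBz (100 μM) with Ellman's reagent DTNB (100 μM) reports activity of 80 nM human serum-derived enzyme, kinetically at 405 nm over 30 min. Compound preincubated 5 min, room temperature, pH 7.5 Tris/1 M NaCl; IC50 by nonlinear fit of rates.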

Chain of Human Factor D (P00746 26-253): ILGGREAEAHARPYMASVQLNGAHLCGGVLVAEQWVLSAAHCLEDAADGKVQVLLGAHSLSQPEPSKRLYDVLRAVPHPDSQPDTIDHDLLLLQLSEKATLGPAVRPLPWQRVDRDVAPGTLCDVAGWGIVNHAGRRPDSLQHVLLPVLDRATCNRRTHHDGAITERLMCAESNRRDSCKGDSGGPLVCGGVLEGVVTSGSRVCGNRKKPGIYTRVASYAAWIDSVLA

`CC(=O)c1nn(CC(=O)N2[C@H](C(=O)Nc3nc(Br)ccc3C)C[C@@]3(C)C[C@@H]23)c2c(CO)cc(-c3cnc(C)nc3)cc12` [Compound 526, (1R,3S,5R)-2-(2-(3-Acetyl-7-(hydroxymethyl)-5-(2-methylpyrimidin-5-yl)-1H-indazol-1-yl)acetyl)-N-(6-bromo-3-methylpyridin-2-yl)-5-methyl-2-azabicyclo[3.1.0]hexane-3-carboxamide] and `CC(=O)OCc1cc(-c2cnc(C)nc2)cc2c(C(C)=O)nn(CC(=O)N3[C@H](C(=O)Nc4nc(Br)ccc4C)C[C@@]4(C)C[C@@H]34)c12` [Compound 529, (3-Acetyl-1-(2-((1R,3S,5R)-3-((6-bromo-3-methylpyridin-2-yl)carbamoyl-5-methyl-2-azabicyclo[3.1.0]hexan-2-yl)-2-oxoethyl)-5-(2-methylpyrimidin-5-yl)-1H-indazol-7-yl)methyl acetate] cannot be ordered by IC50: under 1 µM for the first, under 1 µM for the second.

`CCc1cc(Br)nc(NC(=O)[C@@H]2C[C@@]3(C)C[C@H]3N2C(=O)Cn2nc(C(C)=O)c3cc(-c4cnc(C)nc4)ccc32)c1` [Compound 532, (1R,3S,5R)-2-(2-(3-acetyl-5-(2-methylpyrimidin-5-yl)-1H-indazol-1-yl)acetyl)-N-(6-bromo-4-ethylpyridin-2-yl)-5-methyl-2-azabicyclo[3.1.0]hexane-3-carboxamide] and `COCc1cc(Br)nc(NC(=O)[C@@H]2C[C@@]3(C)C[C@H]3N2C(=O)Cn2nc(C(C)=O)c3cc(-c4cnc(C)nc4)ccc32)c1` [Compound 546, (1R,3S,5R)-2-(2-(3-acetyl-5-(2-methylpyrimidin-5-yl)-1H-indazol-1-yl)acetyl)-N-(6-bromo-4-(methoxymethyl)pyridin-2-yl)-5-methyl-2-azabicyclo[3.1.0]hexane-3-carboxamide] cannot be ordered by IC50: under 1 µM for the first, under 1 µM for the second.

First: CC(=O)c1nn(CC(=O)N2[C@H](C(=O)NC(CCc3ccccc3)(CCc3ccccc3)C(=O)O)C[C@@]3(C)C[C@@H]23)c2c(C)cc(-c3cnc(C)nc3)cc12 [Compound 533, 2-((1R,3S,5R)-2-(2-(3-acetyl-7-methyl-5-(2-methylpyrimidin-5-yl)-1H-indazol-1-yl)acetyl)-5-methyl-2-azabicyclo[3.1.0]hexane-3-carboxamido)-2-phenethyl-4-phenylbutanoic acid]
Second: CC(=O)c1nn(CC(=O)N2[C@H](C(=O)Nc3cc(CCc4ccccc4)cc(Br)n3)C[C@@]3(C)C[C@@H]23)c2ccc(-c3cnc(C)nc3)cc12 [Compound 548]
The IC50 of the first is higher: over 10 µM for the first, under 1 µM for the second.

`CC(=O)c1nn(CC(=O)N2[C@H](C(=O)Nc3cc(CC(N)=O)cc(Br)n3)C[C@@]3(C)C[C@@H]23)c2ccc(-c3cnc(C)nc3)cc12` [Compound 534, (1R,3S,5R)-2-(2-(3-acetyl-5-(2-methylpyrimidin-5-yl)-1H-indazol-1-yl)acetyl)-N-(4-(2-amino-2-oxoethyl)-6-bromopyridin-2-yl)-5-methyl-2-azabicyclo[3.1.0]hexane-3-carboxamide] and `CC(=O)c1nn(CC(=O)N2[C@H](C(=O)Nc3cc(CC(C)C)cc(Br)n3)C[C@@]3(C)C[C@@H]23)c2ccc(-c3cnc(C)nc3)cc12` [Compound 542, (1R,3S,5R)-2-(2-(3-acetyl-5-(2-methylpyrimidin-5-yl)-1H-indazol-1-yl)acetyl)-N-(6-bromo-4-isobutylpyridin-2-yl)-5-methyl-2-azabicyclo[3.1.0]hexane-3-carboxamide] cannot be ordered by IC50: under 1 µM for the first, under 1 µM for the second.

`CC(=O)c1nn(CC(=O)N2[C@H](C(=O)Nc3cc(C(C)C)cc(Br)n3)C[C@@]3(C)C[C@@H]23)c2ccc(-c3cnc(C)nc3)cc12` [Compound 541, (1R,3S,5R)-2-(2-(3-acetyl-5-(2-methylpyrimidin-5-yl)-1H-indazol-1-yl)acetyl)-N-(6-bromo-4-isopropylpyridin-2-yl)-5-methyl-2-azabicyclo[3.1.0]hexane-3-carboxamide] and `CC(=O)c1nn(CC(=O)N2[C@H](C(=O)Nc3cc(CCC(C)C)cc(Br)n3)C[C@@]3(C)C[C@@H]23)c2ccc(-c3cnc(C)nc3)cc12` [Compound 545, (1R,3S,5R)-2-(2-(3-acetyl-5-(2-methylpyrimidin-5-yl)-1H-indazol-1-yl)acetyl)-N-(6-bromo-4-isopentylpyridin-2-yl)-5-methyl-2-azabicyclo[3.1.0]hexane-3-carboxamide] cannot be ordered by IC50: under 1 µM for the first, under 1 µM for the second.

`CC(=O)c1nn(CC(=O)N2[C@H](C(=O)Nc3cc(C#N)cc(Br)n3)C[C@@]3(C)C[C@@H]23)c2ccc(-c3cnc(C)nc3)cc12` [Compound 543, (1R,3S,5R)-2-(2-(3-acetyl-5-(2-methylpyrimidin-5-yl)-1H-indazol-1-yl)acetyl)-N-(6-bromo-4-cyanopyridin-2-yl)-5-methyl-2-azabicyclo[3.1.0]hexane-3-carboxamide] and `CC(=O)c1nn(CC(=O)N2[C@H](C(=O)Nc3cc(C(F)(F)F)cc(Br)n3)C[C@@]3(C)C[C@@H]23)c2ccc(-c3cnc(C)nc3)cc12` [Compound 550, (1R,3S,5R)-2-(2-(3-acetyl-5-(2-methylpyrimidin-5-yl)-1H-indazol-1-yl)acetyl)-N-(6-bromo-4-(trifluoromethyl)pyridin-2-yl)-5-methyl-2-azabicyclo[3.1.0]hexane-3-carboxamide] cannot be ordered by IC50: under 1 µM for the first, under 1 µM for the second.

`CC(=O)c1nn(CC(=O)N2[C@H](C(=O)Nc3cc(-c4nnn[nH]4)cc(Br)n3)C[C@@]3(C)C[C@@H]23)c2ccc(-c3cnc(C)nc3)cc12` [Compound 544, (1R,3S,5R)-2-(2-(3-acetyl-5-(2-methylpyrimidin-5-yl)-1H-indazol-1-yl)acetyl)-N-(6-bromo-4-(1H-tetrazol-5-yl)pyridin-2-yl)-5-methyl-2-azabicyclo[3.1.0]hexane-3-carboxamide] and `CC(=O)c1nn(CC(=O)N2[C@H](C(=O)Nc3cc(-c4ccccc4)cc(Br)n3)C[C@@]3(C)C[C@@H]23)c2ccc(-c3cnc(C)nc3)cc12` [Compound 547, (1R,3S,5R)-2-(2-(3-acetyl-5-(2-methylpyrimidin-5-yl)-1H-indazol-1-yl)acetyl)-N-(6-bromo-4-phenylpyridin-2-yl)-5-methyl-2-azabicyclo[3.1.0]hexane-3-carboxamide] cannot be ordered by IC50: under 1 µM for the first, under 1 µM for the second.

Work on `CCCCc1cc(Br)nc(NC(=O)[C@@H]2C[C@@]3(C)C[C@H]3N2C(=O)Cn2nc(C(C)=O)c3cc(-c4cnc(C)nc4)ccc32)c1` [Compound 549, (1R,3S,5R)-2-(2-(3-acetyl-5-(2-methylpyrimidin-5-yl)-1H-indazol-1-yl)acetyl)-N-(6-bromo-4-butylpyridin-2-yl)-5-methyl-2-azabicyclo[3.1.0]hexane-3-carboxamide] yielded an IC50 of under 1 µM.

same assay, conditions: Table 8; Factor D 80 nM, substrate Z-L-Lys-SBz; read-out: IC50

Compared with `CCCCCCCNC(=O)[C@@H]1C[C@@]2(C)C[C@H]2N1C(=O)Cn1nc(C(C)=O)c2cc(-c3cnc(C)nc3)cc(C)c21` [Compound 527, (1R,3S,5R)-2-(2-(3-acetyl-7-methyl-5-(2-methylpyrimidin-5-yl)-1H-indazol-1-yl)acetyl)-N-heptyl-5-methyl-2-azabicyclo[3.1.0]hexane-3-carboxamide], `CCCCCCCCNC(=O)[C@@H]1C[C@@]2(C)C[C@H]2N1C(=O)Cn1nc(C(C)=O)c2cc(-c3cnc(C)nc3)cc(C)c21` [Compound 528, (1R,3S,5R)-2-(2-(3-acetyl-7-methyl-5-(2-methylpyrimidin-5-yl)-1H-indazol-1-yl)acetyl)-5-methyl-N-octyl-2-azabicyclo[3.1.0]hexane-3-carboxamide] is higher in IC50: under 1 µM for the first, 1 to 10 µM for the second.

First: CCCCCCCCCNC(=O)[C@@H]1C[C@@]2(C)C[C@H]2N1C(=O)Cn1nc(C(C)=O)c2cc(-c3cnc(C)nc3)cc(C)c21 [Compound 530, (1R,3S,5R)-2-(2-(3-acetyl-7-methyl-5-(2-methylpyrimidin-5-yl)-1H-indazol-1-yl)acetyl)-5-methyl-N-nonyl-2-azabicyclo[3.1.0]hexane-3-carboxamide]
Second: CCCCCCCCCCNC(=O)[C@@H]1C[C@@]2(C)C[C@H]2N1C(=O)Cn1nc(C(C)=O)c2cc(-c3cnc(C)nc3)cc(C)c21 [Compound 531, (1R,3S,5R)-2-(2-(3-acetyl-7-methyl-5-(2-methylpyrimidin-5-yl)-1H-indazol-1-yl)acetyl)-N-decyl-5-methyl-2-azabicyclo[3.1.0]hexane-3-carboxamide]
The IC50 of the first is lower: 1 to 10 µM for the first, over 10 µM for the second.

`CCCCCCCCCCCCCCCC(=O)NCCCC[C@H](NC(=O)[C@H](CCC(=O)O)NC(=O)[C@H](Cc1ccc(O)cc1)NC(=O)[C@H](CCC(=O)O)NC(C)=O)C(=O)N[C@@H](CCC(=O)O)C(=O)N[C@@H](Cc1ccc(O)cc1)C(=O)N[C@@H](CCC(=O)O)C(=O)NCCOCCOCCOCCOCCOCCOCCOCCOCCOCCOCCOCCOCCOCCOCCOCCOCCOCCOCCOCCOCCOCCOCCOCCOCCC(=O)NC[C@@]12C[C@@H](C(=O)Nc3nc(Br)ccc3C)N(C(=O)Cn3nc(C(C)=O)c4cc(-c5cnc(C)nc5)cc(C)c43)[C@@H]1C2` [Compound 535] and `CC(=O)c1nn(CC(=O)N2[C@H](C(=O)NCCCCCCc3ccccc3)C[C@@]3(C)C[C@@H]23)c2c(C)cc(-c3cnc(C)nc3)cc12` [Compound 540, (1R,3S,5R)-2-(2-(3-acetyl-7-methyl-5-(2-methylpyrimidin-5-yl)-1H-indazol-1-yl)acetyl)-5-methyl-N-(6-phenylhexyl)-2-azabicyclo[3.1.0]hexane-3-carboxamide] fall in the same range of IC50: 1 to 10 µM for the first, 1 to 10 µM for the second.

`CC(=O)c1nn(CC(=O)N2[C@H](C(=O)NCCCCc3ccccc3)C[C@@]3(C)C[C@@H]23)c2c(C)cc(-c3cnc(C)nc3)cc12` [Compound 538, (1R,3S,5R)-2-(2-(3-acetyl-7-methyl-5-(2-methylpyrimidin-5-yl)-1H-indazol-1-yl)acetyl)-5-methyl-N-(4-phenylbutyl)-2-azabicyclo[3.1.0]hexane-3-carboxamide] and `CC(=O)c1nn(CC(=O)N2[C@H](C(=O)NCCCCCc3ccccc3)C[C@@]3(C)C[C@@H]23)c2c(C)cc(-c3cnc(C)nc3)cc12` [Compound 539, (1R,3S,5R)-2-(2-(3-acetyl-7-methyl-5-(2-methylpyrimidin-5-yl)-1H-indazol-1-yl)acetyl)-5-methyl-N-(5-phenylpentyl)-2-azabicyclo[3.1.0]hexane-3-carboxamide] cannot be ordered by IC50: under 1 µM for the first, under 1 µM for the second.
